One assay addresses T1, PR-B (Homo sapiens, UniProt P06401).
T1 construct: expressed in transfected cells
T1 sequence (P06401 1-933): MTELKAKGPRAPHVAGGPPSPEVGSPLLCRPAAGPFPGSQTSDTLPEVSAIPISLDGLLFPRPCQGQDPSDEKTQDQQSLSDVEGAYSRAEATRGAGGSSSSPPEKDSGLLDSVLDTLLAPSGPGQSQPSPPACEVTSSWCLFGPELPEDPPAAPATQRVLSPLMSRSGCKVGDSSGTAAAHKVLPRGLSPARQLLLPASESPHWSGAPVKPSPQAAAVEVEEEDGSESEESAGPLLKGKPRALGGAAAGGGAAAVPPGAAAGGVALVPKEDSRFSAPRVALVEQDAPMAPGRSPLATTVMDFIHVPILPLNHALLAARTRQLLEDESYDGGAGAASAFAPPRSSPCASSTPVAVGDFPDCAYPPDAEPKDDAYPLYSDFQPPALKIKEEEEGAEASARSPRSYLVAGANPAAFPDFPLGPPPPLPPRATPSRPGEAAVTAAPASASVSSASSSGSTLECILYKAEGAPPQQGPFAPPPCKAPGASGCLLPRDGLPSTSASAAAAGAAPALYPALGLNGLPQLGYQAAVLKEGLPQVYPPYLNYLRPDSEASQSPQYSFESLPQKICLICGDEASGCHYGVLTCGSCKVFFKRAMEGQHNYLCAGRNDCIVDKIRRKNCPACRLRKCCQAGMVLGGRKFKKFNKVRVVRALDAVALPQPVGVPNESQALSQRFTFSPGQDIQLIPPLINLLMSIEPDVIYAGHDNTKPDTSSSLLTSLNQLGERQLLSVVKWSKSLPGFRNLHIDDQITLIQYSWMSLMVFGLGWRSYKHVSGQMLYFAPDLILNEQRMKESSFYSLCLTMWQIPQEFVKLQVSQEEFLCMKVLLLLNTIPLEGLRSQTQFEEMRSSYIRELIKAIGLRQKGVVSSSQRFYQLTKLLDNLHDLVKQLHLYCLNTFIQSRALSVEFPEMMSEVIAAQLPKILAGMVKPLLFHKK
Kind of assay: Transactivation test on antagonistic activity on PR-B. Type of assay: cell-based. Here is the method:
(§1) The transactivation assay is carried out as described in WO 02/054064.

The target of a further assay is T2, PR-A (Homo sapiens, UniProt P06401).
T2 construct: expressed in transfected cells
T2 sequence (P06401 1-769 isoform P06401-2): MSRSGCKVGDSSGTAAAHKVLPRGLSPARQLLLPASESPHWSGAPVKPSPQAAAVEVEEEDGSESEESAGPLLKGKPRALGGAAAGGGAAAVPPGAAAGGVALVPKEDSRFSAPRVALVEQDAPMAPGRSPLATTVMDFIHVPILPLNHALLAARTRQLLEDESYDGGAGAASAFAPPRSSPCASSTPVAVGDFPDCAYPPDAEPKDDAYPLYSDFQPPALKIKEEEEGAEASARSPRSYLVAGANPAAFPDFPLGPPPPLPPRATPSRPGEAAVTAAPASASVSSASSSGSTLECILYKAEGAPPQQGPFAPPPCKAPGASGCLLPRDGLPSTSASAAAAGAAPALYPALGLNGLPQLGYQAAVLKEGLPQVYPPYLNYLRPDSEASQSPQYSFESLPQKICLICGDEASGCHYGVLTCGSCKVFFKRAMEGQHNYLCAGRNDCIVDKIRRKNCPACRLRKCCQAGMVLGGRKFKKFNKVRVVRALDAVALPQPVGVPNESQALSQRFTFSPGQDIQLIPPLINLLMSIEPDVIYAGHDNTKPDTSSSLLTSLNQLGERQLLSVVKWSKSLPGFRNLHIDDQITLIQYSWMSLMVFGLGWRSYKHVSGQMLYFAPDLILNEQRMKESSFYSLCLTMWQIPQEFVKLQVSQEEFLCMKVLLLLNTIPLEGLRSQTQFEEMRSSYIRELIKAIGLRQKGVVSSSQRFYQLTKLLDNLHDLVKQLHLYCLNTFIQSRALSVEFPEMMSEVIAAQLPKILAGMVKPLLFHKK
Nature of the assay: Transactivation test on antagonistic activity at PR-A. The format is cell-based. Conditions: for IC50: antagonism at PR-A; for Emax: read-out: Efficacy (antagonism at PR-A) [%]. On the procedure: as §1

The mark [1] stands for this setting: antagonistic activity on PR-B, read-out: IC50.

Our source for the IC50 and Emax values is patent US20090270381A1, “Non-steroidal progesterone receptor modulators” (priority 2007, published 2009).

As a reminder, the IC50 is the concentration at which inhibition is half-maximal.

Read-outs that look alike come from different tables or passages of the source.

The molecule `N#Cc1ccc(NC(=O)C(O)(Cc2ccccc2)C2CCCCC2)cc1Cl` (racemic) [Example 3, rac-N-(3-Chloro-4-cyanophenyl)-2-hydroxy-2-cyclohexyl-3-phenylpropanamide] registered an IC50 against PR-B of 5.6 nM.
Still for that read-out and setting: the result for `Cc1ccc(C#CC(O)(C(=O)Nc2ccc(C#N)c(Cl)c2)C2CCCCC2)cc1` (racemic) [Example 4, rac-N-(3-Chloro-4-cyanophenyl)-2-hydroxy-2-cyclohexyl-2-(4-methylphenyl)-ethynylacetamide] reads 2 nM; that for `N#Cc1ccc(NC(=O)C(O)(C#Cc2ccc(O)cc2)C2CCCCC2)cc1Cl` (racemic) [Example 10, rac-N-(3-Chloro-4-cyanophenyl)-2-hydroxy-2-cyclohexyl-2-(4-hydroxyphenyl)-ethynylacetamide], 7 nM; that for `N#Cc1ccc(NC(=O)C(O)(C#Cc2ccc(C(=O)O)cc2)C2CCCCC2)cc1Cl` (racemic) [Example 12, rac-N-(3-Chloro-4-cyanophenyl)-2-hydroxy-2-cyclohexyl-2-(4-carboxyphenyl)-ethynylacetamide], 1.8 nM.
On to `COc1ccc(CC(O)(C(=O)Nc2ccc(C#N)c(Cl)c2)C2CCCCC2)cc1` (racemic) [Example 16, rac-N-(3-Chloro-4-cyanophenyl)-2-cyclohexyl-2-hydroxy-3-(4-methoxyphenyl)-propionamide], for which, on PR-B (setting [1]), the IC50 is 17 nM.
The same measure, in the same setting: the result for `N#Cc1ccc(NC(=O)C(O)(Cc2ccccc2)C2CCCC2)cc1Cl` (racemic) [Example 32, rac-N-(3-Chloro-4-cyanophenyl)-2-cyclopentyl-2-hydroxy-3-phenylpropionamide] reads 27 nM; that for `N#Cc1ccc(NC(=O)C(O)(Cc2ccccc2)C2CCCC2)cc1C(F)(F)F` (racemic) [Example 39, rac-N-(4-Cyano-3-trifluoromethylphenyl)-2-cyclopentyl-2-hydroxy-3-phenyl-propionamide], 17 nM; that for `N#Cc1ccc(NC(=O)C(O)(C#Cc2ccccc2)C2CCCCC2)cc1Cl` (single isomer, unassigned; (-)) [Example 2b, (−)-N-(3-chloro-4-cyanophenyl)-2-hydroxy-2-cyclohexyl-2-phenylethynylacetamide], 1.8 nM.
As to `N#Cc1ccc(NC(=O)C(O)(Cc2cccc(-c3ccsc3)c2)C2CCCCC2)cc1C(F)(F)F` (centres unmarked) [Example 59, N-(4-Cyano-3-trifluoromethylphenyl)-2-cyclohexyl-2-hydroxy-3-(3-thiophen-3-ylphenyl)propionamide], on PR-A, the IC50 turned out to be 46.8 nM and the Emax was found to be 103%.
Taken in the same sequence, the figures for `CNC(=O)c1cccc(-c2cccc(CC(O)(C(=O)Nc3ccc(C#N)c(C(F)(F)F)c3)C3CCCCC3)c2)c1` (centres unmarked) [Example 68, N-Methyl-3′-[2-(4-cyano-3-trifluoro-methylphenylcarbamoyl)-2-cyclohexyl-2-hydroxyethyl]biphenyl-3-carboxamide] were 5.13 nM and 102%.
The like results for `CC(=O)Nc1cccc(-c2cccc(CC(O)(C(=O)Nc3ccc(C#N)c(C(F)(F)F)c3)C3CCCCC3)c2)c1` (centres unmarked) [Example 71, 3-(3′-Acetylaminobiphenyl-3-yl)-N-(4-cyano-3-trifluoromethylphenyl)-2-cyclohexyl-2-hydroxypropionamide] were, in that order, 17.3 nM and 100%.
Taken in the same sequence, the figures for `N#Cc1ccc(NC(=O)C(O)(Cc2cccc(-c3ccc(C(=O)CO)cc3)c2)C2CCCCC2)cc1C(F)(F)F` (centres unmarked) [Example 78, N-(4-Cyano-3-trifluoromethylphenyl)-2-cyclohexyl-2-hydroxy-3-[4′-(2-hydroxy-acetyl)biphenyl-3-yl]propionamide] were 55.7 nM and 101%.
On to `CS(=O)(=O)N1CCN(Cc2cccc(CC(O)(C(=O)Nc3ccc(C#N)c(C(F)(F)F)c3)C3CCCCC3)c2)CC1` (centres unmarked) [Example 84, N-(4-Cyano-3-trifluoromethylphenyl)-2-cyclohexyl-2-hydroxy-3-[3-(4-methane-sulfonylpiperazin-1-ylmethyl)phenyl]-propionamide], for which, on PR-A, the midpoint of inhibition, the IC50, lay at 51.2 nM and the Emax was 102%.
Taken in the same sequence, the figures for `Cn1c(C#N)ccc1NC(=O)C(O)(Cc1ccccc1)C1CCCCC1` (centres unmarked) [Example 97, N-(5-Cyano-1-methyl-1H-pyrrol-2-yl)-2-cyclohexyl-2-hydroxy-3-phenyl-propionamide] were 55.6 nM and 105%.
Taken in the same sequence, the figures for `N#Cc1ccc(NC(=O)C(O)(Cc2cccc(-c3cccc(C(=O)N4CCOCC4)c3)c2)C2CCN(C(=O)c3ccccc3)CC2)cc1C(F)(F)F` (centres unmarked) [Example 162, 2-(1-Benzoylpiperidin-4-yl)-N-(4-cyano-3-trifluoromethylphenyl)-2-hydroxy-3-[3′-(morpholine-4-carbonyl)-biphenyl-3-yl]propionamide] were 44.1 nM and 99%.
As for `CNC(=O)c1cccc(-c2cccc(CC(O)(C(=O)Nc3ccc(C#N)c(C(F)(F)F)c3)C3CCN(S(=O)(=O)c4cccc(F)c4)CC3)c2)c1` (centres unmarked) [Example 169, N-Methyl-3′-{2-(4-cyano-3-trifluoro-methylphenylcarbamoyl)-2-[1-(3-fluoro-benzenesulfonyl)-piperidin-4-yl]-2-hydroxyethyl}biphenyl-3-carboxamide], at PR-A, the IC50 was 1.7 nM and the Emax came out at 103%.
In the case of “rac-N-(3-Chloro-4-cyanophenyl)-2-hydroxy-2-cyclohexyl-2-(4-fluorophenyl)-ethynylacetamide [Example 6]”, at PR-B (setting [1]), the IC50 is 5 nM.
In the case of “rac-N-(3-Chloro-4-cyanophenyl)-2-hydroxy-2-cyclohexyl-2-(4-trifluoromethyl-phenyl)ethynylacetamide [Example 5]”, at PR-B (setting [1]), the IC50 came out at 7.9 nM.
